Reference: ChEMBL document CHEMBL1137601, “Catalysis of zinc transfer by D-penicillamine to secondary chelators” (J Med Chem, 2007)

Columns and labels:
[1] = target: T1, Carboxypeptidase A1 (Bos taurus) (UniProt P00730); experiment: Inhibition of bovine ZnCPD pretreated for 200 seconds at 1.5 mM assessed as transfer of zinc(II) from ZnCPD to chelator 4-(2-pyridylazo)-resorcinol; design: scale not given: the % may be the effect or the level left
T1 sequence (whole entry): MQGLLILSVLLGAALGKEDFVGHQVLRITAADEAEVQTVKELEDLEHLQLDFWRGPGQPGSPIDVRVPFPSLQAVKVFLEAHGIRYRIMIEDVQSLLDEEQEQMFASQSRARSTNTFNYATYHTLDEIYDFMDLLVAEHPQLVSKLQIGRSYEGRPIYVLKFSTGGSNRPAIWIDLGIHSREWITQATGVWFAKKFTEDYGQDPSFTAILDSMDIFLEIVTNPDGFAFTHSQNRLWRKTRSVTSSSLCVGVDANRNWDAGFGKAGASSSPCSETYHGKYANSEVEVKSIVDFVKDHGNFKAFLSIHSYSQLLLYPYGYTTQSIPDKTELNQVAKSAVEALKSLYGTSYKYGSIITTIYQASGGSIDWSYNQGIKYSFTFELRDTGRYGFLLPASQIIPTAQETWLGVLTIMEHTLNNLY

[2] = target: T1, Carboxypeptidase A1 (Bos taurus); experiment: Inhibition of bovine ZnCPD pretreated at 0.25 mM assessed as residual enzyme activity in presence of 2.5 uM thionenin after 17 mins
[3] = target: T1, Carboxypeptidase A1 (Bos taurus); experiment: Inhibition of bovine ZnCPD pretreated at 5 mM assessed as residual enzyme activity in presence of 1 mM ethylenediaminetetraacetic acid within 7 mins
[4] = target: T1, Carboxypeptidase A1 (Bos taurus); experiment: Inhibition of bovine ZnCPD pretreated at 0.25 mM assessed as residual enzyme activity in presence of 1 mM ethylenediaminetetraacetic acid within 20 mins

CC(C)(S)[C@@H](N)C(=O)O
Activity [1]: 45% | Activity [2]: 1.5% | Activity [3]: 0.1% | Activity [4]: 1%
